Reference: patent publication US20160168540A1, “COMPOSITION FOR MAINTAINING PLATELET FUNCTION” (KYOTO UNIVERSITY, priority 2013, published 2016)

Target: T1, TACE (ADAM17) (Homo sapiens, UniProt P78536)
T1 construct: made in house; host or cells: mammalian cells or insect cells
Experiment: TACE (ADAM17) inhibition test
Format: biochemical
Conditions: fluorescent synthetic substrate, 37° C. for 1.5 hours; read-out: TACE IC50
Excerpt: The nucleotide sequence of TACE has been reported by Moss et al. (Moss, M. L. et al., Nature 1997, vol. 385, pp. 733-736). Based on this information, the cDNA of TACE was obtained according to the prescribed method from THP-1 cells or the like, and then incorporated the cDNA into an expression vector. Next, this vector was transformed into mammalian cells or insect cells, and TACE protein was expressed. The TACE protein was isolated, and used as an enzyme. Further, a fluorescent synthetic substrate Nma(N-methylanthranilic acid)-Leu-Ala-Gln-Ala-Val-Arg-Ser-Ser-Lys(Dnp(dinitrophenyl))-D-Arg-NH2 including the TACE-cleaved sequence of a membrane-bound TNF was used as a substrate. The enzyme reaction was carried out by adding 1.8 μL of a solution of the test substance to 90 μL of a fluorescent synthetic substrate prepared with an assay buffer B (50 mM tris-hydrochloric acid buffer (pH 7.5) including 200 mM sodium chloride, 5 mM calcium chloride, 10 μM zinc sulfate, and 0.05% PLURONIC F-68), then mixing 90 μL of a TACE enzyme solution prepared with an assay buffer A (50 mM tris-hydrochloric acid buffer (pH 7.5) including 200 mM sodium chloride, 5 mM calcium chloride, 10 μM zinc sulfate, and 2 mg/mL bovine serum albumin) and reacting at 37° C. for 1.5 hours. Enzyme activity was then determined by measuring with a fluorescence intensity meter (Labsystems, Fluoroskan Ascent) at an excitation wavelength of 355 nm and a measurement wavelength of 460 nm. The 50% inhibitory concentration (IC50) of the test substances was calculated by comparing enzyme activity in the presence and the absence of the test substance to determine the inhibition rate. Further, test substances having an IC50 strength of less than 100 nM were evaluated as “A”, and test substances having an IC50 strength of 100 nM or more were evaluated as “B”.

T1 sequence (P78536 215-824): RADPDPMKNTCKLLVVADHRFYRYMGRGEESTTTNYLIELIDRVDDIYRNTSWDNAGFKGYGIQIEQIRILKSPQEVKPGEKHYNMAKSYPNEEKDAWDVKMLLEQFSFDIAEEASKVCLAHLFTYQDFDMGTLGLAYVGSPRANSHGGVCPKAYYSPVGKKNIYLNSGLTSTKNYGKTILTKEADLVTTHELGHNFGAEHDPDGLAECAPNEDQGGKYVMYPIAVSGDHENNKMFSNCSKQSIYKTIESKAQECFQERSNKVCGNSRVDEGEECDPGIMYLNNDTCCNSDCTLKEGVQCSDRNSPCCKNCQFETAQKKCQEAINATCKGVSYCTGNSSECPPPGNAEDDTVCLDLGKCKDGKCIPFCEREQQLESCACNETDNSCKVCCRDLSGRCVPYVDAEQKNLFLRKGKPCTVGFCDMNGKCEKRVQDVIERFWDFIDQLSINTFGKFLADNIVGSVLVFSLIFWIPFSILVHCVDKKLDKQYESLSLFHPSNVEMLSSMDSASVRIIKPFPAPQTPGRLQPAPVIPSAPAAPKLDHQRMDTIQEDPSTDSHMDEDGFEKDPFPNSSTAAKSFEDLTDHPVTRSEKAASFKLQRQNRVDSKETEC

IC50 [nM] | Compound
< 100 | Cc1cccn(CC2(c3ccc(Oc4ccc(F)cc4F)cc3)NC(=O)NC2=O)c1=O (racemic) [Compound I-97]
< 100 | Cc1cccn(CC2(c3ccc4sccc4c3)NC(=O)NC2=O)c1=O (racemic) [Compound I-23, 5-(benzo[b]thiophen-5-yl)-5-[(3-methyl-2-oxopyridin-1(2H)-yl)methyl]imidazolidine-2,4-dione]
< 100 | Cc1cccn(CC2(c3ccc4ccccc4c3)NC(=O)NC2=O)c1=O (racemic) [Compound I-56]
< 100 | Cc1noc(C)c1-c1ccc(C2(Cn3cccc(C)c3=O)NC(=O)NC2=O)cc1 (racemic) [Compound I-90]
< 100 | Cc1cccn(CC2(c3ccc4occc4c3)NC(=O)NC2=O)c1=O (racemic) [Compound I-22, 5-(benzofuran-5-yl)-5-[(3-methyl-2-oxopyridin-1(2H)-yl)methyl]imidazolidine-2,4-dione]
< 100 | Cc1cccn(CC2(c3ccc(-c4nn[nH]n4)cc3)NC(=O)NC2=O)c1=O (racemic) [Compound I-42, 5-[4-(2H-tetrazol-5-yl)phenyl]-5-[(3-methyl-2-oxopyridin-1(2H)-yl)methyl]imidazolidine-2,4-dione]
< 100 | COc1ccc(C2(Cn3cccc(C)c3=O)NC(=O)NC2=O)cc1 (racemic) [Compound I-2, 5-(4-methoxyphenyl)-5-[(3-methyl-2-oxopyridin-1(2H)-yl)methyl]imidazolidine-2,4-dione]
< 100 | COc1ccccc1-c1ccc(C2(Cn3cccc(C)c3=O)NC(=O)NC2=O)cc1 (racemic) [Compound I-74]
< 100 | Cc1cccn(CC2(c3ccc(OC(F)(F)F)cc3)NC(=O)NC2=O)c1=O (racemic) [Compound I-79]
< 100 | Cc1cccn(CC2(c3ccncc3)NC(=O)NC2=O)c1=O (racemic) [Compound I-55]
< 100 | Cc1cccn(CC2(c3ccc(C4CCCCC4)cc3)NC(=O)NC2=O)c1=O (racemic) [Compound I-66]

Second part, the molecule before the results:

Compound | IC50 [nM]
Cc1cccn(CC2(c3cccc(-c4cccnc4)c3)NC(=O)NC2=O)c1=O (racemic) [Compound I-62] | < 100
COc1ccc(OC)c(C2(Cn3cccc(C)c3=O)NC(=O)NC2=O)c1 (racemic) [Compound I-20, 5-(2,5-dimethoxyphenyl)-5-[(3-methyl-2-oxopyridin-1(2H)-yl)methyl]imidazolidine-2,4-dione] | < 100
O=C1NC(=O)C(Cn2cccc(Cl)c2=O)(c2ccc(Cc3ccccc3)cc2)N1 (racemic) [Compound I-150] | < 100
Cc1cccn(CC2(c3ccc(F)cc3F)NC(=O)NC2=O)c1=O (racemic) [Compound I-61] | ≥ 100
COc1ccc(F)cc1C1(Cn2cccc(C)c2=O)NC(=O)NC1=O (racemic) [Compound I-69] | < 100
Cc1cccn(CC2(c3ccc(C#Cc4ccccc4)cc3)NC(=O)NC2=O)c1=O (racemic) [Compound I-106] | < 100
Cc1cccn(CC2(c3cccc(C#CCN(C)C)c3)NC(=O)NC2=O)c1=O (racemic) [Compound I-71] | < 100
Cc1ccc(C2(Cn3cccc(C)c3=O)NC(=O)NC2=O)c(F)c1F (racemic) [Compound I-128] | < 100
Cc1cccn(CC2(c3ccc(Oc4ccccc4F)cc3)NC(=O)NC2=O)c1=O (racemic) [Compound I-86] | < 100
Cc1cccn(CC2(c3ccc(OC4C=CCCC4)cc3)NC(=O)NC2=O)c1=O (racemic) [Compound I-36, 5-[4-(cyclohex-2-en-1-yloxy)phenyl]-5-[(3-methyl-2-oxopyridin-1(2H)-yl)methyl]imidazolidine-2,4-dione] | < 100
O=C1NC(=O)C(Cn2cccc(Cl)c2=O)(c2ccccc2)N1 (racemic) [Compound I-50, 5-[(3-chloro-2-oxopyridin-1(2H)-yl)methyl]-5-phenylimidazolidine-2,4-dione] | < 100
